Measurements: the NIST ThermoML archive (doi:10.1016/j.tca.2011.01.019)
“And” between values parts separate entries of the source, which are not always exact repeats. Equal values may be shown once.

Columns and labels:
[1] = xn = mol fraction of the nth substance listed; conditions: 101 kPa, Liquid; for speed of sound: Linear variable-path acoustic interferometer; for mass density: Pycnometric method
[2] = 101 kPa, Liquid; for speed of sound: Linear variable-path acoustic interferometer; for mass density: Pycnometric method

Cc1ccccc1N [2-methylaniline] + C1CCOC1
[1]
Conditions	mass density, 303.15 K [kg/m3]	mass density, 313.15 K [kg/m3]	mass density, 323.15 K [kg/m3]	speed of sound, 303.15 K [m/s]	speed of sound, 313.15 K [m/s]	speed of sound, 323.15 K [m/s]
x2 = 0	990.1	981.7	973.3	1579	1539	1501
x2 = 0.0828	984	975.9	968	1559	1519	1482
x2 = 0.1818	977	969.2	961.5	1534	1493	1458
x2 = 0.2807	969.9	962.2	954.6	1508	1467	1431
x2 = 0.3704	962.6	954.9	947.3	1482	1442	1406
x2 = 0.4652	953.7	945.9	938.2	1455	1414	1377
x2 = 0.5732	941.7	933.8	925.9	1421	1379	1342
x2 = 0.6764	928.4	920.1	911.9	1382	1341	1305
x2 = 0.7791	913.3	904.7	896	1343	1301	1264
x2 = 0.888	895.8	886.4	877	1300	1255	1219

CC(C)OC(C)C [diisopropyl ether] + Cc1ccccc1N
[1], x1 = 1
Conditions	mass density [kg/m3]	speed of sound [m/s]
303.15 K	712.9	976
313.15 K	702.5	932
323.15 K	691.9	889

C1CCOC1 [tetrahydrofuran] + Cc1cccc(N)c1
[1], x1 = 1
Conditions	mass density [kg/m3]	speed of sound [m/s]
303.15 K	876.9	1254
313.15 K	865.7	1207
323.15 K	854.8	1165

CC(C)OC(C)C [diisopropyl ether]
[2]
Conditions	mass density	speed of sound [m/s]
303.15 K	712.9 kg/m3	976
313.15 K	702.5 kg/m3 and 702.9 kg/m3	932
323.15 K	691.9 kg/m3	889

C1CCOC1 [tetrahydrofuran] + Cc1ccccc1N
[1], x1 = 1
Conditions	mass density [kg/m3]	speed of sound [m/s]
303.15 K	876.9	1254
313.15 K	865.7	1207
323.15 K	854.8	1165

C1CCOC1 [tetrahydrofuran]
[2]
Conditions	mass density [kg/m3]	speed of sound [m/s]
303.15 K	876.9	1254
313.15 K	865.7	1207
323.15 K	854.8	1165

Cc1cccc(N)c1 [3-methylaniline] + C1CCOC1
[1]
Conditions	mass density, 303.15 K [kg/m3]	mass density, 313.15 K [kg/m3]	mass density, 323.15 K [kg/m3]	speed of sound, 303.15 K [m/s]	speed of sound, 313.15 K [m/s]	speed of sound, 323.15 K [m/s]
x2 = 0	980.8	972.7	964.6	1567	1533	1492
x2 = 0.0864	975.3	968	960.1	1544	1513	1474
x2 = 0.1853	969.2	962.6	955	1522	1488	1451
x2 = 0.2831	963	956.4	948.9	1497	1463	1425
x2 = 0.3776	956.4	949.7	941.9	1472	1436	1398
x2 = 0.4693	949	942	933.9	1447	1409	1372
x2 = 0.5689	939.3	931.9	923.6	1416	1375	1339
x2 = 0.6803	926.2	918.4	909.8	1378	1338	1301
x2 = 0.7808	912.4	904.3	895.3	1341	1300	1261
x2 = 0.8886	895.6	886.8	877.2	1300	1255	1217
